SMILES strings stand for the structures.

Results on 9 molecules are retold here after patent publication US10519134B2, “Pyrazole compounds and methods of making and using same” (Lundbeck La Jolla Research Center, Inc., priority 2015, dated 2019).

The target in test [1] is T1, MAGL (Mus musculus, UniProt O35678).
T1 construct: Proteomes (mouse brain membrane fraction or cell lysates); from tissue; host or cells: mouse brain membrane fraction (or cell lysates)
T1 sequence (O35678 1-303): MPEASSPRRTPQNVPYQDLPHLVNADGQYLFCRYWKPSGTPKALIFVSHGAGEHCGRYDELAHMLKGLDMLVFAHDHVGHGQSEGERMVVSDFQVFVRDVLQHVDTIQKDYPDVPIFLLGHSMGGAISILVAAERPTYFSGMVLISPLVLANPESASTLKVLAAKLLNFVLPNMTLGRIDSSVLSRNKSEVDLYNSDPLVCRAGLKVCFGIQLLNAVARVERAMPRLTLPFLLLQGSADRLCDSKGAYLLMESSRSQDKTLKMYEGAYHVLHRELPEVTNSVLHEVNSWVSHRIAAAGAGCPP
The test can be described thus: In vitro competitive activity-based protein profiling (mouse), MAGL gel band. The test is classed as biochemical. As to conditions: for inhibition at 1 µM: read-out: MAGL % inh. 1 μM. Put shortly: (§1)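 Mouse brain membrane proteome or cell lysate (1.0 mg/mL protein) preincubated 30 min at 37 °C with varying inhibitor concentrations, then labelled 30 min at 37 °C with FP-Rh or HT-01 probe (50 μM stock). After SDS-PAGE, activity taken from fluorescent intensity of the MAGL and FAAH gel bands.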

Test [2] concerns the target T2, FAAH (Mus musculus, UniProt O08914).
T2 construct: Proteomes (mouse brain membrane fraction or cell lysates); from tissue; host or cells: mouse brain membrane fraction (or cell lysates)
T2 sequence (O08914 1-579): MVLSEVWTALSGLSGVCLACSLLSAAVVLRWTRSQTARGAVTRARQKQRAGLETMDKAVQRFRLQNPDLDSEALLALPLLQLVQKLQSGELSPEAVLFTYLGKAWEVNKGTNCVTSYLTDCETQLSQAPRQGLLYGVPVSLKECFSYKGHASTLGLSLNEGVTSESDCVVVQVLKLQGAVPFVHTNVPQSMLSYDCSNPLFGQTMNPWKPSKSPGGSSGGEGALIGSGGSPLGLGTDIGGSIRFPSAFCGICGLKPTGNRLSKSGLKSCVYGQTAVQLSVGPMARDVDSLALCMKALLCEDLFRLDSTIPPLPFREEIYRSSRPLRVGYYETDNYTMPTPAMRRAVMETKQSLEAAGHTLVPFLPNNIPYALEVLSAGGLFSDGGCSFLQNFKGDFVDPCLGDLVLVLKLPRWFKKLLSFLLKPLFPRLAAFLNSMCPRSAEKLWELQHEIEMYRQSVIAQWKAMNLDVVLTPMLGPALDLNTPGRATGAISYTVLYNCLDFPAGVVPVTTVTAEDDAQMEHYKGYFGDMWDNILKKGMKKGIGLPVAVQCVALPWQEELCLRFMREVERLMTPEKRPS
In words: In vitro competitive activity-based protein profiling (mouse), FAAH gel band. As to conditions: for inhibition at 1 µM: read-out: FAAH % inh. 1 μM. Format: biochemical. The procedure, abridged:
as §1

Turning to `CS(=O)(=O)Nc1ccn(C(=O)N2CCC3(CCCN3Cc3ccc(C(F)(F)F)cc3N3CCC(C(=O)O)C3)CC2)n1` (centres unmarked) [Example 245, 1-(2-((8-(3-(methylsulfonamido)-1H-pyrazole-1-carbonyl)-1,8-diazaspiro[4.5]decan-1-yl)methyl)-5-(trifluoromethyl)phenyl) pyrrolidine-3-carboxylic acid], the inhibition at 1 µM in test [1] and in test [2] was 0 to 25% in each case.
Consider `CS(=O)(=O)Nc1ccn(C(=O)N2CCC3(CCCN3Cc3cc(N4CCC(C(=O)O)CC4)cc(C(F)(F)F)c3)CC2)n1` [Example 246, 1-(3-((8-(3-(methylsulfonamido)-1H-pyrazole-1-carbonyl)-1,8-diazaspiro[4.5]decan-1-yl)methyl)-5-(trifluoromethyl)phenyl) piperidine-4-carboxylic acid], for which the inhibition at 1 µM in test [1] and in test [2] was 0 to 25% in each case.
For the molecule `CS(=O)(=O)Nc1ccn(C(=O)N2CCC3(CCCN3Cc3cc(N4CCC(C(=O)O)C4)cc(C(F)(F)F)c3)CC2)n1` (centres unmarked) [Example 247, 1-(3-((8-(3-(methylsulfonamido)-1H-pyrazole-1-carbonyl)-1,8-diazaspiro[4.5]decan-1-yl)methyl)-5-(trifluoromethyl)phenyl)pyrrolidine-3-carboxylic acid], the inhibition at 1 µM in test [1] and in test [2] was 0 to 25% in each case.
`CS(=O)(=O)Nc1ccn(C(=O)N2CCN(Cc3ccc(Cl)c(N4CCC(C(N)=O)CC4)c3)CC2)n1` [Example 249, 1-(2-chloro-5-((4-(3-(methylsulfonamido)-1H-pyrazole-1-carbonyl)piperazin-1-yl)methyl)phenyl) piperidine-4-carboxamide]: the inhibition at 1 µM in test [1] and in test [2] was 0 to 25% throughout.
Regarding `CC(=O)N1CCN(c2cc(CN3CCN(C(=O)n4ccc(NS(C)(=O)=O)n4)CC3)cc(C(F)(F)F)c2)CC1` [Example 251, N-(1-(4-(3-(4-acetylpiperazin-1-yl)-5-(trifluoromethyl)benzyl)piperazine-1-carbonyl)-1H-pyrazol-3-yl) methanesulfonamide], the inhibition at 1 µM lay within 25 to 50% in test [1] and 0 to 25% in test [2].
Regarding `CS(=O)(=O)Nc1ccn(C(=O)N2CCN(Cc3ccc(C(F)(F)F)cc3N3CCC(O)CC3)CC2)n1` [Example 252, N-(1-(4-(2-(4-hydroxypiperidin-1-yl)-4-(trifluoromethyl)benzyl)piperazine-1-carbonyl)-1H-pyrazol-3-yl) methanesulfonamide], the values for the half-maximal inhibitory concentration (IC50) in test [1] (mouse) and in test [2] (mouse) were not above 0.1 µM and 1 to 10 µM, respectively. In addition, the inhibition at 1 µM in test [1] is not below 75%; in test [2] it was 0 to 25%.
`CC(=O)Nc1ccn(C(=O)N2CCC3(CCCN3Cc3ccc4[nH]cnc4c3)CC2)n1` [Example 253, N-(1-(1-((1H-benzo[d]imidazol-5-yl)methyl)-1,8-diazaspiro[4.5]decane-8-carbonyl)-1H-pyrazol-3-yl)acetamide]: the inhibition at 1 µM is 50 to 75% in test [1] and 0 to 25% in test [2].
The matching figures for `CS(=O)(=O)Nc1ccn(C(=O)N2CCN(Cc3cc(N4CCN(S(C)(=O)=O)CC4)cc(C(F)(F)F)c3)CC2)n1` [Example 254, N-(1-(4-(3-(4-(methylsulfonyl)piperazin-1-yl)-5-(trifluoromethyl)benzyl)piperazine-1-carbonyl)-1H-pyrazol-3-yl) methanesulfonamide]: 25 to 50% and 0 to 25%.
On to `CS(=O)(=O)Nc1ccn(C(=O)N2CCC3(CCCN3Cc3ccc(C(F)(F)F)cc3N3CCN(S(C)(=O)=O)CC3)CC2)n1` [Example 255, N-(1-(1-(2-(4-(methylsulfonyl)piperazin-1-yl)-4-(trifluoromethyl)benzyl)-1,8-diazaspiro[4.5]decane-8-carbonyl)-1H-pyrazol-3-yl) methanesulfonamide], for which the inhibition at 1 µM in test [1] and in test [2] was 0 to 25% each time.
